Experimental data reported in ChEMBL document CHEMBL4396916, “Novel potent substituted 4-amino-2-thiopyrimidines as dual VEGFR-2 and BRAF kinase inhibitors” (Eur J Med Chem, 2019).

Assays:
Malme-3M = assay: Growth inhibition of human MALME-3M cells at 10 uM incubated for 48 hrs by sulforhodamine B assay relative to control; assay type: functional; conditions: read-out: GI
SN12C = assay: Growth inhibition of human SN12C cells at 10 uM incubated for 48 hrs by sulforhodamine B assay relative to control; assay type: functional; conditions: read-out: GI
EKVX = assay: Growth inhibition of human EKVX cells at 10 uM incubated for 48 hrs by sulforhodamine B assay relative to control; assay type: functional; conditions: read-out: GI
K562 = assay: Growth inhibition of human K562 cells at 10 uM incubated for 48 hrs by sulforhodamine B assay relative to control; assay type: functional; conditions: K562, 48 h, read-out: GI
T47D [1] = assay: Growth inhibition of human T47D cells at 10 uM incubated for 48 hrs by sulforhodamine B assay relative to control; assay type: functional; conditions: read-out: GI
HCT-116 = assay: Growth inhibition of human HCT116 cells at 10 uM incubated for 48 hrs by sulforhodamine B assay relative to control; assay type: functional; conditions: HCT-116, 48 h, read-out: GI
T47D [2] = assay: Cytotoxicity against human T47D cells expressing wild type BRAF measured after 48 hrs by sulforhodamine B assay; assay type: functional, cell-based
SK-OV-3 = assay: Growth inhibition of human SKOV3 cells at 10 uM incubated for 48 hrs by sulforhodamine B assay relative to control; assay type: functional; conditions: SK-OV-3, 48 h, read-out: GI
CAKI-1 = assay: Growth inhibition of human Caki1 cells at 10 uM incubated for 48 hrs by sulforhodamine B assay relative to control; assay type: functional; conditions: CAKI-1, 48 h, read-out: GI
NCI-H522 = assay: Growth inhibition of human NCI-H522 cells at 10 uM incubated for 48 hrs by sulforhodamine B assay relative to control; assay type: functional; conditions: NCI-H522, 48 h, read-out: GI
MDA-MB-231 = assay: Growth inhibition of human MDA-MB-231 cells at 10 uM incubated for 48 hrs by sulforhodamine B assay relative to control; assay type: functional; conditions: MDA-MB-231, 48 h, read-out: GI
A549 = assay: Growth inhibition of human A549/ATCC cells at 10 uM incubated for 48 hrs by sulforhodamine B assay relative to control; assay type: functional; conditions: A549, 48 h, read-out: GI
MOLT-4 = assay: Growth inhibition of human MOLT4 cells at 10 uM incubated for 48 hrs by sulforhodamine B assay relative to control; assay type: functional; conditions: MOLT-4, 48 h, read-out: GI
NCI-H226 = assay: Growth inhibition of human NCI-H226 cells at 10 uM incubated for 48 hrs by sulforhodamine B assay relative to control; assay type: functional; conditions: NCI-H226, 48 h, read-out: GI
CCRF-CEM = assay: Growth inhibition of human CCRF-CEM cells at 10 uM incubated for 48 hrs by sulforhodamine B assay relative to control; assay type: functional; conditions: read-out: GI
NCI/ADR-RES = assay: Growth inhibition of human NCI/ADR-RES cells at 10 uM incubated for 48 hrs by sulforhodamine B assay relative to control; assay type: functional; conditions: read-out: GI
MCF7 [3] = assay: Cytotoxicity against human MCF7 cells expressing VEGFR2 and wild type BRAF measured after 48 hrs by sulforhodamine B assay; assay type: functional, cell-based; conditions: MCF7, 48 h
[4] = biological target: Vascular endothelial growth factor receptor 2 (Homo sapiens, UniProt P35968); assay: Inhibition of human N-terminal GST tagged VEGFR-2 expressed in baculovirus infected Sf9 cells using poly (Glu,Tyr) 4:1 as substrate in presence of ATP by Kinase-Glo luminescence assay
Chain of Vascular endothelial growth factor receptor 2 (P35968 whole entry): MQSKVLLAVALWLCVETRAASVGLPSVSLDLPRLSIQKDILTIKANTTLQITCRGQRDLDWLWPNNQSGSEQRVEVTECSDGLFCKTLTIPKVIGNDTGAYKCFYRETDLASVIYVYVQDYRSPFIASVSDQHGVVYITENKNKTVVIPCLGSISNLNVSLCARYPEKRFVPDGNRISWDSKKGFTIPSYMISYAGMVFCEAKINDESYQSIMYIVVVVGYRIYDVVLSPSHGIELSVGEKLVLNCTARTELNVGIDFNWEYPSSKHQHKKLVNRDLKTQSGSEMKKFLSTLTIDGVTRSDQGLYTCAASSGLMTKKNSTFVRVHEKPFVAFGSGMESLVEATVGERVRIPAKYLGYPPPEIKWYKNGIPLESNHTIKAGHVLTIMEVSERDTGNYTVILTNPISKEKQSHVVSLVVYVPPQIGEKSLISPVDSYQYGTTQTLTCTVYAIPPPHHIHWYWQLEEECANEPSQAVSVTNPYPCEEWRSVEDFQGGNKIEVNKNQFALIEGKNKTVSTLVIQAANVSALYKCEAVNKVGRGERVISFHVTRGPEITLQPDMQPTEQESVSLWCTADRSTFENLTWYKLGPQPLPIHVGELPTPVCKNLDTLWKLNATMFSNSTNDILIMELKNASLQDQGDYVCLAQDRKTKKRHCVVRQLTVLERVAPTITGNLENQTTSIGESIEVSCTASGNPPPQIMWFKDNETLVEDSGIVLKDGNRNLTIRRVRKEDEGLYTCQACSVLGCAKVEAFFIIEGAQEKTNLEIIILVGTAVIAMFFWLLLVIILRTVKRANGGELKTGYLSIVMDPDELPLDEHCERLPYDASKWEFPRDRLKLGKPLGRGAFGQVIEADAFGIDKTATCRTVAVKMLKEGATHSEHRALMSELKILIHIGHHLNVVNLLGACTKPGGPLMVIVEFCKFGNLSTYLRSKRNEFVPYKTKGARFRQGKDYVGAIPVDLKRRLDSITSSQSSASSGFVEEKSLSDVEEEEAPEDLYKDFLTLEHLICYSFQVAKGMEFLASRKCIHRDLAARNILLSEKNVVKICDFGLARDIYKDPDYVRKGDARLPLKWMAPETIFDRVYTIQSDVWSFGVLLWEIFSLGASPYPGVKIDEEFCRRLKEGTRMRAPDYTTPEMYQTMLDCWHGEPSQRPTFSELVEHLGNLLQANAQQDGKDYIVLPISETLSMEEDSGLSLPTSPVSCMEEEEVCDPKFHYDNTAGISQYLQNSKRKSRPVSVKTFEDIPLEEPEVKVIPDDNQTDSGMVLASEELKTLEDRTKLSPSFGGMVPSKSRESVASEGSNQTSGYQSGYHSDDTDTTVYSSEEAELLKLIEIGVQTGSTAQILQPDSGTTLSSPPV

HOP-62 = assay: Growth inhibition of human HOP62 cells at 10 uM incubated for 48 hrs by sulforhodamine B assay relative to control; assay type: functional; conditions: HOP-62, 48 h, read-out: GI
SF-539 = assay: Growth inhibition of human SF539 cells at 10 uM incubated for 48 hrs by sulforhodamine B assay relative to control; assay type: functional; conditions: SF-539, 48 h, read-out: GI
UO-31 = assay: Growth inhibition of human UO31 cells at 10 uM incubated for 48 hrs by sulforhodamine B assay relative to control; assay type: functional; conditions: UO-31, 48 h, read-out: GI
Hs-578T = assay: Growth inhibition of human Hs578T cells at 10 uM incubated for 48 hrs by sulforhodamine B assay relative to control; assay type: functional; conditions: read-out: GI
A498 = assay: Growth inhibition of human A498 cells at 10 uM incubated for 48 hrs by sulforhodamine B assay relative to control; assay type: functional; conditions: A498, 48 h, read-out: GI
HOP-92 = assay: Growth inhibition of human HOP92 cells at 10 uM incubated for 48 hrs by sulforhodamine B assay relative to control; assay type: functional; conditions: HOP-92, 48 h, read-out: GI
MCF7 [5] = assay: Inhibition of VEGFR2 level in human MCF7 cells at 10 uM measured after 48 hrs by ELISA relative to control; assay type: functional; conditions: MCF7, 48 h
IGROV-1 = assay: Growth inhibition of human IGROV1 cells at 10 uM incubated for 48 hrs by sulforhodamine B assay relative to control; assay type: functional; conditions: IGROV-1, 48 h, read-out: GI
PC-3 = assay: Growth inhibition of human PC3 cells at 10 uM incubated for 48 hrs by sulforhodamine B assay relative to control; assay type: functional; conditions: PC-3, 48 h, read-out: GI
NCI-H23 = assay: Growth inhibition of human NCI-H23 cells at 10 uM incubated for 48 hrs by sulforhodamine B assay relative to control; assay type: functional; conditions: NCI-H23, 48 h, read-out: GI
MDA-MB-468 = assay: Growth inhibition of human MDA-MB-468 cells at 10 uM incubated for 48 hrs by sulforhodamine B assay relative to control; assay type: functional; conditions: MDA-MB-468, 48 h, read-out: GI
MCF7 [6] = assay: Growth inhibition of human MCF7 cells at 10 uM incubated for 48 hrs by sulforhodamine B assay relative to control; assay type: functional; conditions: MCF7, 48 h, read-out: GI
OVCAR-5 = assay: Growth inhibition of human OVCAR5 cells at 10 uM incubated for 48 hrs by sulforhodamine B assay relative to control; assay type: functional; conditions: OVCAR-5, 48 h, read-out: GI
ACHN = assay: Growth inhibition of human ACHN cells at 10 uM incubated for 48 hrs by sulforhodamine B assay relative to control; assay type: functional; conditions: read-out: GI
HCT-15 = assay: Growth inhibition of human HCT15 cells at 10 uM incubated for 48 hrs by sulforhodamine B assay relative to control; assay type: functional; conditions: HCT-15, 48 h, read-out: GI
UACC-62 = assay: Growth inhibition of human UACC62 cells at 10 uM incubated for 48 hrs by sulforhodamine B assay relative to control; assay type: functional; conditions: UACC-62, 48 h, read-out: GI
OVCAR-4 = assay: Growth inhibition of human OVCAR4 cells at 10 uM incubated for 48 hrs by sulforhodamine B assay relative to control; assay type: functional; conditions: OVCAR-4, 48 h, read-out: GI
RPMI-8226 = assay: Growth inhibition of human RPMI8226 cells at 10 uM incubated for 48 hrs by sulforhodamine B assay relative to control; assay type: functional; conditions: RPMI-8226, 48 h, read-out: GI
COLO 205 = assay: Growth inhibition of human COLO205 cells at 10 uM incubated for 48 hrs by sulforhodamine B assay relative to control; assay type: functional; conditions: COLO 205, 48 h, read-out: GI
SR = assay: Growth inhibition of human SR cells at 10 uM incubated for 48 hrs by sulforhodamine B assay relative to control; assay type: functional; conditions: read-out: GI
HT-29 = assay: Growth inhibition of human HT-29 cells at 10 uM incubated for 48 hrs by sulforhodamine B assay relative to control; assay type: functional; conditions: HT-29, 48 h, read-out: GI
DU-145 = assay: Growth inhibition of human DU145 cells at 10 uM incubated for 48 hrs by sulforhodamine B assay relative to control; assay type: functional; conditions: DU-145, 48 h, read-out: GI
[7] = biological target: Serine/threonine-protein kinase B-raf (Homo sapiens, UniProt P15056); assay: Inhibition of human wild type BRAF by Kinase-Glo luminescence assay
Chain of Serine/threonine-protein kinase B-raf (P15056 whole entry): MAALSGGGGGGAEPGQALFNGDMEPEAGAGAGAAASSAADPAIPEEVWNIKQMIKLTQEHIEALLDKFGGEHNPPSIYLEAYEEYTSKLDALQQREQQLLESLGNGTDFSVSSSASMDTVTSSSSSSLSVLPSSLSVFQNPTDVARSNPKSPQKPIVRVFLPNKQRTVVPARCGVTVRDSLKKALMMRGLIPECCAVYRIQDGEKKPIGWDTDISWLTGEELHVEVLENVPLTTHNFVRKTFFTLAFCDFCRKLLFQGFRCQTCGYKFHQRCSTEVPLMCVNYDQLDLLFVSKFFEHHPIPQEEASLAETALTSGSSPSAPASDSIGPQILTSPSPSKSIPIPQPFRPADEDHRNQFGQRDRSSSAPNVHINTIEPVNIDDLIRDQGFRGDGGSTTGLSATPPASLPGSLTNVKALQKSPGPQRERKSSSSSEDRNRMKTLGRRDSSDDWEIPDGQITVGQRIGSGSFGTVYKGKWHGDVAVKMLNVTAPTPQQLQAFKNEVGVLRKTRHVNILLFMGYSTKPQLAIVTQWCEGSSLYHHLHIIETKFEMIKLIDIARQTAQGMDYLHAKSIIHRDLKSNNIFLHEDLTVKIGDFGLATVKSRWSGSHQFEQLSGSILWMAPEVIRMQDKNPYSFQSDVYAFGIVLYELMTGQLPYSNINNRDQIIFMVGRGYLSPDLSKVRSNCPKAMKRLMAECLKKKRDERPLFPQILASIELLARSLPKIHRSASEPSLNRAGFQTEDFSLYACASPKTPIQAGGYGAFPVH

SW-620 = assay: Growth inhibition of human SW620 cells at 10 uM incubated for 48 hrs by sulforhodamine B assay relative to control; assay type: functional; conditions: SW-620, 48 h, read-out: GI
KM12 = assay: Growth inhibition of human KM12 cells at 10 uM incubated for 48 hrs by sulforhodamine B assay relative to control; assay type: functional; conditions: KM12, 48 h, read-out: GI

IC50 [4] [µM]	Structure (SMILES)	inhibition of growth at 10 µM (Malme-3M) [%]	inhibition of growth at 10 µM (SN12C) [%]	inhibition of growth at 10 µM (K562) [%]	inhibition of growth at 10 µM (T47D [1]) [%]	inhibition of growth at 10 µM (HCT-116) [%]	inhibition of growth at 10 µM (SK-OV-3) [%]	inhibition of growth at 10 µM (CAKI-1) [%]	inhibition of growth at 10 µM (NCI-H522) [%]	inhibition of growth at 10 µM (MDA-MB-231) [%]	inhibition of growth at 10 µM (A549) [%]	inhibition of growth at 10 µM (NCI-H226) [%]	inhibition of growth at 10 µM (CCRF-CEM) [%]	IC50 (MCF7 [3]) [µM]	inhibition of growth at 10 µM (HOP-62) [%]	inhibition of growth at 10 µM (SF-539) [%]	inhibition of growth at 10 µM (UO-31) [%]	inhibition of growth at 10 µM (A498) [%]	inhibition of growth at 10 µM (HOP-92) [%]	inhibition of growth at 10 µM (IGROV-1) [%]	other results
0.74	CC(=O)c1cccc(Nc2ccnc(SCC(=O)c3ccc(-c4ccccc4)cc3)n2)c1	17	13	16	49	14	22	23	38	41	14	22	28	24.4	19	11	40	40	17	20	inhibition of growth at 10 µM (EKVX): 15%; IC50 (T47D [2]): 12.1 µM; inhibition of growth at 10 µM (MOLT-4): 29%; inhibition of growth at 10 µM (NCI/ADR-RES): 14%; inhibition of growth at 10 µM (Hs-578T): 14%; inhibition at 10 µM (MCF7 [5]): 36%; inhibition of growth at 10 µM (PC-3): 25%; inhibition of growth at 10 µM (NCI-H23): 18%; inhibition of growth at 10 µM (MDA-MB-468): 14%; inhibition of growth at 10 µM (MCF7 [6]): 12%; inhibition of growth at 10 µM (OVCAR-5): 12%; inhibition of growth at 10 µM (ACHN): 12%; inhibition of growth at 10 µM (HCT-15): 15%; inhibition of growth at 10 µM (UACC-62): 24%; inhibition of growth at 10 µM (OVCAR-4): 12%; inhibition of growth at 10 µM (RPMI-8226): 34%
0.28	CC(=O)c1ccc(Nc2ccnc(SCC(=O)c3ccc(-c4ccccc4)cc3)n2)cc1	14	11	10	29	42	11	16	22	22	20	11	22	66.1	13	13	27	55	21	14	inhibition of growth at 10 µM (COLO 205): 11%; inhibition of growth at 10 µM (SR): 41%; inhibition of growth at 10 µM (HT-29): 16%; inhibition of growth at 10 µM (DU-145): 16%; inhibition of growth at 10 µM (PC-3): 19%; inhibition of growth at 10 µM (NCI-H23): 10%; inhibition of growth at 10 µM (MDA-MB-468): 13%; IC50 [7]: 1.05 µM; inhibition of growth at 10 µM (ACHN): 26%; inhibition of growth at 10 µM (HCT-15): 13%; inhibition of growth at 10 µM (UACC-62): 20%; inhibition of growth at 10 µM (SW-620): 26%; inhibition of growth at 10 µM (KM12): 24%; inhibition of growth at 10 µM (RPMI-8226): 26%
